Values quoted from earlier work as cited in patent US20090191287A1, “Mitigation of Inflammation-Related Injuries” (priority 2008, published 2009).

Tests used:
myocardium at risk = settings: allopurinol-pretreated dogs, left anterior descending artery ligated; control group 23%
heart infarct = settings: dogs pretreated with allopurinol; control dogs 40%
[1] = tested on: high-risk coronary surgery patients; settings: high-risk coronary surgery patients pretreated before operating; placebo 17%

Oc1ncnc2[nH]ncc12 [allopurinol]
myocardium at risk destroyed (myocardial necrosis) (myocardium at risk): 9%
heart infarct size (heart infarct): 22%
mortality rate [1]: 4%
